Test results taken from patent US10656159B2, “Immunoassays of s-adenosylmethionine and methylation index in personalized medicine and health evaluation” (HUNAN SKYWORLD BIOTECHNOLOGIES CO, priority 2013, dated 2020).
Values joined by “and” are separate entries in the source; they are usually repeats but may differ in a detail not shown here. Equal entries are not always repeated. “Also recorded” adds a separate entry of the source.

Key:
[1] = system: nucleolar 2-O-methyltransferase; details: cited from earlier work
[2] = cELISA sensitivity / SAH standard curve; format: binding; details: HRP-anti-301-1 1:1000, 0.5 μg/ml BSA-SAH coat
Experimental: The cELISA result from Table 1C with obtained from 0.5 μg/ml BSA-SAH coated micro-titer plate, HRP-anti-301-1 at dilution of 1:1000 in PBS incubation system. Different amounts of coating antigen, antibody, and incubating buffer will give slightly different minimum detection limits.

[3] = Thermal stability of SAM and SAH in human plasma; format: in vitro ADME
Experimental: The stability of SAM and SAH at different temperatures, as well as their stability in acid and base environment were tested. The 310 human plasma samples were placed at room temperature for 2 hours. […] The increased SAH was due to de-methylation of SAM in ex vivi situation within a few hours of blood withdrawal.
Results from stability study for different temperature conditions, i.e. 4° C., 15° C. (room temperature), 37° C. and 56° C., were obtained mainly on SAM and partially on SAH measurements. Plasma from 4 individual samples S3, S4, S5 and S6 were used in 4° C., 15° C. and 37° C. experiments.
However, when samples were placed at room temperature (˜15° C.) and 37° C., SAM was degraded rapidly especially at 37° C., SAM degradation rate reached a maximum at about 4-6 hours under 37° C. […] At about 6 hours after blood withdrawal, SAM level was reduced whereas SAH level was increased. The values of SAH were recorded as >1000 nM from 6 hours to 3 days, thus SAH leaks were not shown. The level of SAH was maintained at a high level for about 3 days before it started to drop. SAM level went down continuously. […] It cannot be ruled out that inhibition of SAH converting to other metabolites or degradation also existed causing it to stay high for quite some time. It meant to show the dynamics of SAM and SAH for this particular sample. Difference among samples exists. Samples S1, S2, S3 and S4 were used in 56° C. experiments. The results are shown in FIG. 19F-G. SAM was quickly undetectable in 10 minutes at 56° C., whereas SAH was dramatically degraded in 10 minutes and fully undetectable after about 4 hours at 56° C.

[4] = Dialysis of plasma: free and non-free SAM and SAH; format: in vitro ADME, human; details: for Amount left after dialysis: 37° C., 24 hour; for Non-free form left within the dialysis bag: dialysis 15° C., 24 hours, 20 mM phosphate buffer pH 7.4, bag MW 14,000
Experimental: To distinguish whether there are conjugated form of SAM and SAH in human plasma, we used dialysis bags to dialyze plasma samples at different temperature for 24 hours with at least two changes of dialyzing buffer (20 mM PB, pH7.4), then measured the SAM and SAH levels before and after dialysis.
Notice that for those SAH data which were greater than or equal to 1000 nM, only 1000 nM was used in the figure. Therefore, it is obvious that the immunoassays used in this invention can bind free SAM and SAH from human plasma. The differences of SAM or SAH as measured before and after dialysis (20 mM phosphate buffer, pH 7.4) for each sample represented the free SAM or SAH molecules that escaped from the dialysis bag (MW 14,000, Biosharp, USA) into the dialysis buffer, therefore they could not be detected from the sample collected from dialysis bag.
FIGS. 20A and 20B also show the percentages of SAM and SAH that were left within the dialysis bag after dialysis at 15° C. for 24 hours, which represented the amount of non-free SAM and SAH respectively.

[5] = Stability of SAM and SAH in plasma at different pH; format: in vitro ADME, human; details: for Level at 1 day time point: maximum detection limit 1000 nM; for Effect of pH on degradation: plasma, 15° C., pH 5.5-6.0, 7.0-7.5, 8.0-8.5
Experimental: The stability of SAM and SAH was also tested in acidic and basic conditions at 15° C. Normal mixed plasma sample (S8) (with pH 7.84), samples S1, S2, S3, S4 (pH 7.0-7.5) were used in the experiments. 10 μl 5M HCl was added to 1260 μl plasma to adjust its pH to 5.5-6.0. In another set of samples, 2 μl 5M NaOH was added to 1260 μl plasma to adjust its pH to 8.0-8.5. Before using these acidic or basic samples to conduct the immunoassay, 1.1 μl 5M NaOH was added to 180 μl acidic samples; 0.376 μl 5M HCl was added to 180 μl basic samples to make them neutral. Meanwhile, standards were also added the same amount of acid and base as the samples.
This observation was consistent with a prior publication regarding pH stability of SAM (Parks, L W, et al. jbc.org Aug. 23, 1957). […] However basic environment has a stronger impact than acidic environment. The SAH data at 1 day time point, the SAH levels for pH 7.0-7.5 and pH 5.5-6.0 curves were measured to be greater than 1000 nM. The experiment has maximum detection limit as 1000 nM, only 1000 nM points were plotted, therefore the spikes at 1 day time point could not been see for pH 7.0-7.5 and pH 5.5-6.0 curves. This figure is meant to show the dynamics of SAH level for this particular sample. Difference among samples exists.

[6] = oral, alcoholic liver cirrhosis, versus placebo; cited from earlier work
[7] = 310 human plasma samples, room temperature 2 hours versus 4° C.

C[S+](CC[C@H](N)C(=O)[O-])C[C@H]1O[C@@H](n2cnc3c(N)ncnc32)[C@H](O)[C@@H]1O (stereo partly drawn) [(S, S)-SAM-e]
Binding tightness relative to (R, S)-SAM-e [1]: 10 fold

Nc1ncnc2c1ncn2[C@@H]1O[C@H](CSCC[C@H](N)C(=O)O)[C@@H](O)[C@H]1O [SAH, S-Adenosylhomocysteine]
OD450 ([2]; SAH 3.906 nM): 0.7722 and 0.9144 and 0.7786
OD450 Mean ([2]; SAH 3.906 nM): 0.8217
OD450 ([2]; SAH 7.8125 nM): 0.7602 and 0.8113 and 0.7708
OD450 Mean ([2]; SAH 7.8125 nM): 0.7808
OD450 ([2]; SAH 15.625 nM): 0.8045 and 0.8273 and 0.7975
OD450 Mean ([2]; SAH 15.625 nM): 0.8098
OD450 ([2]; SAH 31.25 nM): 0.7285 and 0.8199 and 0.7545
OD450 Mean ([2]; SAH 31.25 nM): 0.7676
OD450 ([2]; SAH 62.5 nM): 0.6055 and 0.7115 and 0.6444
OD450 Mean ([2]; SAH 62.5 nM): 0.6538
OD450 ([2]; SAH 125 nM): 0.5421 and 0.6358 and 0.5372
OD450 Mean ([2]; SAH 125 nM): 0.5717
OD450 ([2]; SAH 250 nM): 0.4116 and 0.4426 and 0.442
OD450 Mean ([2]; SAH 250 nM): 0.4321
Increase of level [3, 7]: 21.05%±83.31%
Time level was maintained at a high level before it started to drop ([3]; plasma, 15° C.): about 3 days
Time to fully undetectable ([3]; plasma, 56° C.): about 4 hours
Amount left after dialysis [4]: trivial or no SAM and SAH left
Non-free form left within the dialysis bag [4]: around 30%
Level at 1 day time point ([5]; plasma pH 5.5-6.0, 15° C.): greater than 1000 nM
Level at 1 day time point ([5]; plasma pH 7.0-7.5, 15° C.): greater than 1000 nM
Effect of pH on degradation [5]: both acidic and basic environment speeded up plasma SAH degradation; also recorded: Both acid and base increased the speed SAH was degraded

C[S+](CC[C@H](N)C(=O)O)C[C@H]1O[C@@H](n2cnc3c(N)ncnc32)[C@H](O)[C@@H]1O (some centres unmarked) [SAM, S-Adenosylmethionine]
Reduction of level [3, 7]: 33.81%±19.43%
Stability ([3]; plasma, 37° C.): reduced quickly in all samples
Time at which degradation rate reached a maximum ([3]; plasma, 37° C.): 4 to 6 h
Stability ([3]; plasma, 56° C.): reduced even faster than at 37 °C
Time to undetectable ([3]; plasma, 56° C.): 10 min
Amount left after dialysis [4]: trivial or no SAM and SAH left
Non-free form left within the dialysis bag [4]: 11-25%
Effect of pH on degradation [5]: degradation rate increased with pH values; also recorded: Low pH (acidic environment) helped prevent SAM from quick degradation
Overall mortality and/or progression to liver transplant [6]: 12%
